# What was measured:
# Assay type in all cases: in vivo
# Settings in all cases: mean of three results
# Brassica napus = test: Drought stress test, spray application to greenhouse plants (Brassica napus)
# Method: (§1) Seeds of monocotyledonous and dicotyledonous crop plants were laid out in sandy loam in wood-fiber pots, covered with soil and cultivated in a greenhouse under good growth conditions. The test plants were treated at the early leaf stage (BBCH10-BBCH13). To ensure uniform water supply before commencement of stress, the potted plants were supplied with the maximum amount of water immediately beforehand by dam irrigation and, after application, transferred into plastic inserts in order to prevent subsequent, excessively rapid drying. The compounds according to the invention, formulated in the form of wettable powders (WP), wettable granules (WG), suspension concentrates (SC) or emulsion concentrates (EC), were sprayed onto the green parts of the plants as an aqueous suspension at an equivalent water application rate of 600 l/ha with addition of 0.2% wetting agent (agrotin). Substance application is followed immediately by stress treatment of the plants (cold or drought stress). For cold stress treatment, the plants were kept under the following controlled conditions: • “day”: 12 hours with illumination at 8° C. • “night”: 12 hours without illumination at 1° C.
# (§2) Drought stress was induced by gradual drying out under the following conditions: • “day”: 14 hours with illumination at 26° C. • “night”: 10 hours without illumination at 18° C.
# (§3) The duration of the respective stress phases was guided mainly by the state of the untreated (=treated with blank formulation but without test compound), stressed control plants and thus varied from crop to crop. It was ended (by re-irrigating or transfer to a greenhouse with good growth conditions) as soon as irreversible damage was observed on the untreated, stressed control plants. In the case of dicotyledonous crops, for example oilseed rape and soybeans, the duration of the drought stress phase varied between 3 and 5 days; in the case of monocotyledonous crops, for example wheat, barley or corn, it varied between 6 and 10 days. The duration of the cold stress phase varied between 12 and 14 days.
# (§4) The end of the stress phase was followed by an approx. 5-7-day recovery phase, during which the plants were once again kept under good growth conditions in a greenhouse. In order to rule out any influence of the effects observed by any fungicidal action of the test compounds, it was additionally ensured that the tests proceeded without fungal infection and without infection pressure.
# (§5) After the recovery phase had ended, the intensities of damage were rated visually in comparison to untreated, unstressed controls of the same age (in the case of drought stress) or the same growth stage (in the case of cold stress). The intensity of damage was first recorded as a percentage (100%=plants have died, 0%=like control plants). These values were then used to calculate the efficacy of the test compounds (=percentage reduction in the intensity of damage as a result of substance application) by the following formula:
# (§6) [formula] EF: efficacy (%) DVus: damage value of the untreated, stressed control DVts: damage value of the plants treated with test compound
# (§7) The tables below list mean values in each case from three results of the same test.
# (§8) Efficacies of selected compounds of the formula (I) under drought stress: […]
# Zea mays = test: Drought stress test, spray application to greenhouse plants (Zea mays)
# Method: as §1, §2, §3, §4, §5, §6, §7, §8
# Triticum aestivum = test: Drought stress test, spray application to greenhouse plants (Triticum aestivum)
# Method: as §1, §2, §3, §4, §5, §6, §7, §8
SMILES,"EF (BRSNS), efficacy = percentage reduction in the intensity of damage (Brassica napus; dosage 250 g/ha)","EF (TRZAS), efficacy = percentage reduction in the intensity of damage (Triticum aestivum; dosage 250 g/ha)",further results
"CC1=CC(=O)CC(C)(C)C1(O)C#C/C(=C\C(=O)O)C(F)(F)F (centres unmarked) [I.1-23, (2E)-5-(1-Hydroxy-2,6,6-trimethyl-4-oxocyclohex-2-en-1-yl)-3-(trifluoromethyl)pent-2-en-4-ynoic acid]",>5%,>5%,"EF (ZEAMX), efficacy = percentage reduction in the intensity of damage (Zea mays; dosage 250 g/ha): >5%"
CCOC(=O)C=C(C#CC1(O)C(C)=CC(=O)CC1(C)C)C1CC1 (centres unmarked) [I.1-114],>5%,>5%,
CCOC(=O)C=C(C=CC1(O)C(C)=CC(=O)CC1(C)C)C(C)C (centres unmarked) [I.1-86],,>5%,
CCCCCC(C=CC1(O)C(C)=CC(=O)CC1(C)C)=CC(=O)OCC (centres unmarked) [I.1-68],>5%,,
"CCC/C(C#CC1(O)C(C)=CC(=O)CC1(C)C)=C/C(=O)OCC (centres unmarked) [I.1-2, Ethyl (2Z)-3-[(1-hydroxy-2,6,6-trimethyl-4-oxocyclohex-2-en-1-yl)ethynyl]hex-2-enoate]",>5%,>5%,
CCOC(=O)C=C(C#CC1(O)C(C)=CC(=O)CC1(C)C)CC (centres unmarked) [I.1-8],>5%,>5%,
CCC(C#CC1(O)C(C)=CC(=O)CC1(C)C)=CC(=O)OC (centres unmarked) [I.1-142],>5%,>5%,"EF (ZEAMX), efficacy = percentage reduction in the intensity of damage (Zea mays; dosage 250 g/ha): >5%"
CCOC(=O)C=C(C=CC1(O)C(C)=CC(=O)CC1(C)C)C1CC1 (centres unmarked) [I.1-116],>5%,>5%,
"CCCC(=C/C(=O)OCC)/C=C/C1(O)C(C)=CC(=O)CC1(C)C (centres unmarked) [I.1-4, Ethyl (2Z)-3-[(E)-2-(1-hydroxy-2,6,6-trimethyl-4-oxocyclohex-2-en-1-yl)vinyl]hex-2-enoate]",>5%,>5%,
CCOC(=O)C=C(C=CC1(O)C(C)=CC(=O)CC1(C)C)C1CCCC1 (centres unmarked) [I.1-124],,>5%,
CCC(C#CC1(O)C(C)=CC(=O)CC1(C)C)=CC(=O)NC(C)C (centres unmarked) [I.2-14],,,"EF (ZEAMX), efficacy = percentage reduction in the intensity of damage (Zea mays; dosage 25 g/ha): >5%"
"CCOC(=O)/C=C(\C=C\C1(O)C(C)=CC(=O)CC1(C)C)C(F)(F)F (centres unmarked) [I.1-16, Ethyl (2E,4E)-5-(1-hydroxy-2,6,6-trimethyl-4-oxocyclohex-2-en-1-yl)-3-(trifluoromethyl)penta-2,4-dienoate]",>5%,>5%,
CCC(C#CC1(O)C(C)=CC(=O)CC1(C)C)=CC(=O)NC1CC1 (centres unmarked) [I.2-18],>5%,,"EF (ZEAMX), efficacy = percentage reduction in the intensity of damage (Zea mays; dosage 25 g/ha): >5%"
"CCOC(=O)/C=C(\C#CC1(O)C(C)=CC(=O)CC1(C)C)C(F)(F)F (centres unmarked) [I.1-14, Ethyl (2E)-5-(1-hydroxy-2,6,6-trimethyl-4-oxocyclohex-2-en-1-yl)-3-(trifluoromethyl)pent-2-en-4-ynoate]",,,"EF (ZEAMX), efficacy = percentage reduction in the intensity of damage (Zea mays; dosage 25 g/ha): >5%"
CCCCCCC(C#CC1(O)C(C)=CC(=O)CC1(C)C)=CC(=O)OCC (centres unmarked) [I.1-72],>5%,,
CCOC(=O)C=C(C=CC1(O)C(C)=CC(=O)CC1(C)C)CC (centres unmarked) [I.1-10],>5%,>5%,"EF (ZEAMX), efficacy = percentage reduction in the intensity of damage (Zea mays; dosage 250 g/ha): >5%"
CCC(C=CC1(O)C(C)=CC(=O)CC1(C)C)=CC(=O)O (centres unmarked) [I.1-20],>5%,>5%,"EF (ZEAMX), efficacy = percentage reduction in the intensity of damage (Zea mays; dosage 250 g/ha): >5%"
CCOC(=O)C=C(C=CC1(O)C(C)=CC(=O)CC1(C)C)C(C)(C)C (centres unmarked) [I.1-92],,>5%,"EF (ZEAMX), efficacy = percentage reduction in the intensity of damage (Zea mays; dosage 250 g/ha): >5%"
CCOC(=O)C=C(C#CC1(O)C(C)=CC(=O)CC1(C)C)C(C)C (centres unmarked) [I.1-84],,,"EF (ZEAMX), efficacy = percentage reduction in the intensity of damage (Zea mays; dosage 250 g/ha): >5%"
CC1=CC(=O)CC(C)(C)C1(O)C=CC(=CC(=O)O)C1CC1 (centres unmarked) [I.1-46],>5%,>5%,"EF (ZEAMX), efficacy = percentage reduction in the intensity of damage (Zea mays; dosage 250 g/ha): >5%"
CCCCC(C#CC1(O)C(C)=CC(=O)CC1(C)C)=CC(=O)OCC (centres unmarked) [I.1-60],>5%,>5%,
CCOC(=O)C=C(C#CC1(O)C(C)=CC(=O)CC1(C)C)C1CCCC1 (centres unmarked) [I.1-122],,,"EF (TRZAS), efficacy = percentage reduction in the intensity of damage (Triticum aestivum; dosage 25 g/ha): >5%"
CCCCCCC(C=CC1(O)C(C)=CC(=O)CC1(C)C)=CC(=O)OCC (centres unmarked) [I.1-74],>5%,,
CCC(C=CC1(O)C(C)=CC(=O)CC1(C)C)=CC(=O)OC (centres unmarked) [I.1-144],,,"EF (BRSNS), efficacy = percentage reduction in the intensity of damage (Brassica napus; dosage 25 g/ha): >5%; EF (TRZAS), efficacy = percentage reduction in the intensity of damage (Triticum aestivum; dosage 25 g/ha): >5%"

# Source: patent US9185914B2, “Substituted 5-(cyclohex-2-en-1-yl)-penta-2,4-dienes and 5-(cyclohex-2-en-1-yl)-pent-2-en-4-ines as active agents against abiotic stress in plants” (BAYER INTELLECTUAL PROPERTY GMBH, priority 2011, dated 2015)
